In patent EP4759815A1, “FUSED TRICYCLIC COMPOUND, PHARMACEUTICAL COMPOSITION THEREOF, AND USE THEREOF” (Haihe Biopharma Co., Ltd., priority 2023, dated 2025):
Read-outs that look alike come from different tables or passages of the source.

How the values were obtained:
[1] = target: Recombinant human PARP1 protein (Homo sapiens, UniProt P09874); assay: PARP1 inhibitory activity (histone substrate, chemiluminescent ELISA); type: biochemical; details: for PARP1/2 Fold selectivity: ratio of PARP2 IC50 to PARP1 IC50
[2] = test system: MDA-MB-436 cells; assay: MDA-MB-436 cell proliferation inhibition test (CellTiter-Glo, 7 days); type: cell-based; details: Homo sapiens, MDA-MB-436, 168 h, 7 days incubation
[3] = target: T1, PDE3A (Homo sapiens, UniProt Q14432); assay: PDE3A enzyme activity test (IMAP FP); type: biochemical; details: PDE3A protein 0.2 nM, FAM-cAMP 200 nM, 60 minutes at rt; off-target safety
T1 construct: purchased ICE G13020203013

[4] = Preliminary pharmacokinetic tests in mice; type: in vivo; details: male, ICR; for AUC(0-t) / clearance / half-life: mouse plasma; for bioavailability: plasma, oral, mouse, p.o.(5mg/kg) versus i.v.(1mg/kg)
[5] = Test of blood-brain barrier properties in rats; type: in vivo; details: male, Wistar Han, brain/plasma; rat, intravenous 1 mg/kg, after 4 h; read-out: Ratio % (brain/blood)
[6] = target: T2, recombinant human PARP2 protein (Homo sapiens, UniProt Q9UGN5); assay: PARP2 inhibitory activity (histone substrate, chemiluminescent ELISA); type: biochemical
T2 construct: purchased BPS 80502

[7] = histone substrate, 500 µM NAD+ added to the substrate solution, read-out: PARP1 IC50
[8] = histone substrate, read-out: PARP2 IC50

T2 sequence (Q9UGN5 whole entry): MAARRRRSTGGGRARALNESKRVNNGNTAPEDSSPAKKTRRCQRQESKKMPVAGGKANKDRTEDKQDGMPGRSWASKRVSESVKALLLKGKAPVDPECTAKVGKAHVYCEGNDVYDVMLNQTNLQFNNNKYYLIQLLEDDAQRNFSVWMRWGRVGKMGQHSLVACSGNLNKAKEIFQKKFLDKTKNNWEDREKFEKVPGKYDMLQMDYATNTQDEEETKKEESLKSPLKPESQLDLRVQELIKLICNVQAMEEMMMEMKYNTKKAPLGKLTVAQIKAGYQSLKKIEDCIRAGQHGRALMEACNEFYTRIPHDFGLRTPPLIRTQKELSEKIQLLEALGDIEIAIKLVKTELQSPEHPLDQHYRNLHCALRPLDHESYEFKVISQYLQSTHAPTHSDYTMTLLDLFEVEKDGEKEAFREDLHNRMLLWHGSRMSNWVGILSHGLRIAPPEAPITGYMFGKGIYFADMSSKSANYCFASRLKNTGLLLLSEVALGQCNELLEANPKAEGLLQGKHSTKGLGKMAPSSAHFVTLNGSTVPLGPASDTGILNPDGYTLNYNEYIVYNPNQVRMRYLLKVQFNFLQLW
Sequence of Recombinant human PARP1 protein (P09874 whole entry): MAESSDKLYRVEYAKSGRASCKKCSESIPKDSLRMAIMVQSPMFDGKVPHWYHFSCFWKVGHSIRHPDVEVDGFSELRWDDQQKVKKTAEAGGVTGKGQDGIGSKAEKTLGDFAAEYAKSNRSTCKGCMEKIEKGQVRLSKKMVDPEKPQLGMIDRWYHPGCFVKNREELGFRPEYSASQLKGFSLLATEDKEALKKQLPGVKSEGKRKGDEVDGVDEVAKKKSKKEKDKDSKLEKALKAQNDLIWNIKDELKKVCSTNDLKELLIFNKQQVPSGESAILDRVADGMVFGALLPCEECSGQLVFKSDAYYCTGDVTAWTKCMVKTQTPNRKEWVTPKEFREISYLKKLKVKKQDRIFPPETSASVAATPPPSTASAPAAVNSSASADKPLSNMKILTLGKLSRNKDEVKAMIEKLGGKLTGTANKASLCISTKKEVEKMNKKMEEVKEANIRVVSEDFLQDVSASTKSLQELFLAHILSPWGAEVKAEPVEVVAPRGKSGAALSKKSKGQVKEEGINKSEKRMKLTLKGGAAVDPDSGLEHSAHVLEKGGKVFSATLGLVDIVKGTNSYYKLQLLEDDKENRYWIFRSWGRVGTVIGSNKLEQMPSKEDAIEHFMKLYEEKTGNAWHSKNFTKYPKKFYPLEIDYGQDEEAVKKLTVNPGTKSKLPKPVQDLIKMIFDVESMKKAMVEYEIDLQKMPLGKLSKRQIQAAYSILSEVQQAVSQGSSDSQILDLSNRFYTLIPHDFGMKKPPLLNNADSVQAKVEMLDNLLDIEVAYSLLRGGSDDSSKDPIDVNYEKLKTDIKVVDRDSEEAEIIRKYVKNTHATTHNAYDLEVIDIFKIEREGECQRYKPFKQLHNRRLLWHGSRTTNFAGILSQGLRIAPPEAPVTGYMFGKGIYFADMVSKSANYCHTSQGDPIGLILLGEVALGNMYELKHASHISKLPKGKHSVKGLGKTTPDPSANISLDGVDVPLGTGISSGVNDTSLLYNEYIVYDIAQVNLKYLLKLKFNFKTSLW
T1 sequence (Q14432 whole entry, species assumed): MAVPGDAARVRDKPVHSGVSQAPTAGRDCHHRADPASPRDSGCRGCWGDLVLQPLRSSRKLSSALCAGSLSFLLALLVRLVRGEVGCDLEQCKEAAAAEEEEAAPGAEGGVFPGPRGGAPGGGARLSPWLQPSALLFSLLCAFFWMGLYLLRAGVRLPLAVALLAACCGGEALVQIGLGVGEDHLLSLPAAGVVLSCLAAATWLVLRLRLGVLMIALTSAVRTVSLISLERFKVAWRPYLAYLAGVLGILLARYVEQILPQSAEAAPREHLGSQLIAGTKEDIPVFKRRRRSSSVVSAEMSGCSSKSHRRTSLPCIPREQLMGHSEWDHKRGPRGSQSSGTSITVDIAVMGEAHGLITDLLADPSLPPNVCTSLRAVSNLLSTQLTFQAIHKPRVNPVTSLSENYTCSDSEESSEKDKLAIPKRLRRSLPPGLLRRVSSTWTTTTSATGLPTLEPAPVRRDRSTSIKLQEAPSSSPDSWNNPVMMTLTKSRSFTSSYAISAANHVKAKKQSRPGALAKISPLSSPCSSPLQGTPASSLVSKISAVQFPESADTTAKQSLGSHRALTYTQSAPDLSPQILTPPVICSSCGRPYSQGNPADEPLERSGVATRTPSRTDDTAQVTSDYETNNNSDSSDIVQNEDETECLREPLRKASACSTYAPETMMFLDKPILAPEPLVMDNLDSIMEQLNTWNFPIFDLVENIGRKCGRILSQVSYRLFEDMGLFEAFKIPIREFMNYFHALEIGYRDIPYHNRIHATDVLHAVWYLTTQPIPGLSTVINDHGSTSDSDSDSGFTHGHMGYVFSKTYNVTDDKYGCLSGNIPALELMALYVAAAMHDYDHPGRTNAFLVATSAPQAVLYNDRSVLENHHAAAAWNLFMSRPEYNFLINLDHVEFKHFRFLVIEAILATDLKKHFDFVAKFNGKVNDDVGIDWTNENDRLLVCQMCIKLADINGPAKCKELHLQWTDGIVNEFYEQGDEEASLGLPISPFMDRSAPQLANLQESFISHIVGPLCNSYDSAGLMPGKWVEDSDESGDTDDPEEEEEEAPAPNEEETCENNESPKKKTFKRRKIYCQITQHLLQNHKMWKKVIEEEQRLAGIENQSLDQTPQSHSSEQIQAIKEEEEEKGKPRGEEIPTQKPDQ

Row | SMILES | IC50 [1, 7] | IC50 [2] | PARP1/2 Fold selectivity [1] | IC50 [6, 8] | other results
1 | CC[C@H]1C(=O)Nc2cc(CN3CCN(c4ccc(C(=O)NC)nc4F)CC3)cc3cnn1c23 [Compound 5-1] | 1.35 nM | 27.4 nM |  |  | 
2 | CC[C@@H]1C(=O)Nc2cc(CN3CCN(c4ccc(C(=O)NC)nc4F)CC3)cc3cnn1c23 [Compound 5-2] | 1.03 nM | 14.8 nM |  |  | IC50 [3]: > 10000 nM
3 | CCC1C(=O)Nc2cc(CN3CCN(c4ccc(C(=O)NC)nc4F)CC3)cc3cnn1c23 (stereo not shown) [Compound 5] | 0.78 nM | 15.4 nM |  |  | 
4 | CNC(=O)c1ccc(N2CCN(Cc3cc4c5c(cnn5[C@H](C)C(=O)N4)c3)CC2)c(Cl)n1 [Compound 6-2] |  |  |  |  | IC50 [3]: 239 nM
5 | CNC(=O)c1ccc(N2CCN(Cc3cc4c5c(cnn5C(C)C(=O)N4)c3)CC2)c(Cl)n1 (stereo not shown) [Compound 6] |  |  |  |  | AUC(0-t) ([4]; iv, i.v.(1mg/kg)): 5030 ng·h/mL; clearance ([4]; iv, i.v.(1mg/kg)): 3.3 mL/min/kg; half-life ([4]; iv, i.v.(1mg/kg)): 1.3 h; bioavailability [4]: 117%; AUC(0-t) ([4]; po, p.o.(5mg/kg)): 28700 ng·h/mL; half-life ([4]; po, p.o.(5mg/kg)): 2.7 h
6 | CNC(=O)c1ccc(N2CCN(Cc3cc4c5c(cnn5C(C)C(=O)N4)c3)CC2)c(C)n1 (stereo not shown) [Compound 7] |  |  |  |  | Kp at 4 h [5]: 0.138
7 | CCC1C(=O)Nc2cc(CN3CCN(c4ccc(C(=O)NC)nc4Cl)CC3)cc3cnn1c23 (stereo not shown) [Compound 8] |  | 12.7 nM |  |  | 
8 | CNC(=O)c1ccc(N2CCN(Cc3cc4c5c(cnn5c3)N(C)C(=O)N4)CC2)c(C)n1 [Compound 19] | 1.42 nM | < 1.52 nM | 516 | 732 nM | IC50 [3]: 433 nM
9 | CNC(=O)c1ccc(N2CCN(Cc3cc4c5c(cnn5CC(=O)N4)c3)CC2)c(Cl)n1 [Compound 26] | 0.28 nM |  | 5150 | 1440 nM | 
10 | CCN1C(=O)Nc2cc(CN3CCN(c4ccc(C(=O)NC)nc4C)CC3)cn3ncc1c23 [Compound 30] | 1.24 nM | 2.7 nM | 170.8 | 211 nM | 
11 | CCN1C(=O)Nc2cc(CN3CCN(c4ccc(C(=O)NC)nc4F)CC3)cn3ncc1c23 [Compound 33] |  | < 1.52 nM |  |  | 
12 | CCN1C(=O)Nc2cc(CN3CCN(c4ccc(C(=O)NC)nc4Cl)CC3)cn3ncc1c23 [Compound 34] |  | 2.3 nM |  |  | 
13 | CC1C(=O)Nc2cc(CN3CCN(c4ccc(C#N)cn4)CC3)cc3cnn1c23 (stereo not shown) [Compound 35] |  | 213 nM |  |  | 
14 | CNC(=O)c1ccc(N2CCN(Cc3cc4c5c(cnn5C5(CC5)C(=O)N4)c3)CC2)c(F)n1 [Compound 37] | 0.24 nM | < 1.52 nM | 36.3 | 8.7 nM | 
15 | CNC(=O)c1ccc(N2CCN(Cc3cc4c5c(cnn5C5(CC5)C(=O)N4)c3)CC2)c(Cl)n1 [Compound 38] |  | < 1.52 nM |  |  | 
16 | CNC(=O)c1ccc(N2CCN(Cc3cc4c5c(cnn5C5(CC5)C(=O)N4)c3)CC2)c(C)n1 [Compound 39] |  | < 1.52 nM |  |  | 
17 | CNC(=O)c1ccc(N2CCN(Cc3cc4c5c(cnn5C5(CC5)C(=O)N4)c3)C[C@H]2C)c(C)n1 [Compound 40] | 0.23 nM | 17.9 nM | 353.6 | 81 nM | IC50 [3]: 635 nM; AUC(0-t) ([4]; iv, i.v.(1mg/kg)): 4410 ng·h/mL; clearance ([4]; iv, i.v.(1mg/kg)): 3.8 mL/min/kg; half-life ([4]; iv, i.v.(1mg/kg)): 3.6 h; bioavailability [4]: 124%; AUC(0-t) ([4]; po, p.o.(5mg/kg)): 31100 ng·h/mL; half-life ([4]; po, p.o.(5mg/kg)): 3.1 h
18 | CNC(=O)c1ccc(N2CCN(Cc3cc4cnn5c4c(c3F)NC(=O)C53CC3)CC2)c(Cl)n1 [Compound 41] | 0.1 nM | 4.4 nM | 719 | 71.9 nM | 
19 | CNC(=O)c1ccc(N2CCN(Cc3cc4c5c(cnn5[C@@H](C5CC5)C(=O)N4)c3)CC2)c(Cl)n1 [Compound 43-1] | 1.67 nM | 8.7 nM | 344.5 | 575 nM | 
20 | CNC(=O)c1ccc(N2CCN(Cc3cc4c5c(cnn5[C@H](C5CC5)C(=O)N4)c3)CC2)c(Cl)n1 [Compound 43-2] | 1.04 nM | 1.7 nM | 133.3 | 139 nM | 
21 | CNC(=O)c1ccc(N2CCN(Cc3cc4c5c(c3)ncn5[C@@H](C3CC3)C(=O)N4)CC2)c(Cl)n1 [Compound 47-1] | 0.68 nM | 20.2 nM | 1326 | 901 nM | IC50 [3]: > 10000 nM
22 | CNC(=O)c1ccc(N2CCN(Cc3cc4c5c(c3)ncn5[C@H](C3CC3)C(=O)N4)CC2)c(Cl)n1 [Compound 47-2] | 1.21 nM | 16.7 nM | 232.5 | 281 nM | IC50 [3]: > 10000 nM

Row | SMILES | IC50 [1, 7] | IC50 [2] | PARP1/2 Fold selectivity [1] | IC50 [6, 8] | other results
23 | CNC(=O)c1ccc(N2CCN(Cc3cc4c5c(c3)ncn5[C@@H](C3CC3)C(=O)N4)CC2)c(C)n1 [Compound 49-1] | 0.71 nM | 20.4 nM | 1852 | 1310 nM | 
24 | CNC(=O)c1ccc(N2CCN(Cc3cc4c5c(c3)ncn5[C@H](C3CC3)C(=O)N4)CC2)c(C)n1 [Compound 49-2] | 1.53 nM | 18 nM | 281.5 | 431 nM | IC50 [3]: > 10000 nM
25 | CNC(=O)c1ccc(N2CCN(Cc3cc4c5c(cnn5c3)N(C3CC3)C(=O)N4)CC2)c(F)n1 [Compound 53] | 2.16 nM | 2.2 nM | 21.1 | 45.5 nM | 
26 | CNC(=O)c1ccc(N2CCN(Cc3cc4c5c(cnn5c3)N(C3CC3)C(=O)N4)CC2)c(C)n1 [Compound 54] | 0.4 nM | < 1.52 nM | 21.1 | 45.2 nM | IC50 [3]: 428 nM
27 | CNC(=O)c1ccc(N2CCN(Cc3cc4c5c(cnn5c3)N(C(C)C)C(=O)N4)CC2)c(F)n1 [Compound 55] | 2.64 nM |  | 382 | 1010 nM | 
28 | CNC(=O)c1ccc(N2CCN(Cc3cc4c5c(cnn5c3)N(C(C)C)C(=O)N4)CC2)c(C)n1 [Compound 56] | 3.34 nM | 15 nM | 364.5 | 1220 nM | IC50 [3]: 878 nM
29 | CNC(=O)c1ccc(N2CCN(Cc3cc4c5c(c(C)nn5c3)N(C)C(=O)N4)CC2)c(C)n1 [Compound 57] |  | 1.3 nM |  |  | 
30 | CNC(=O)c1ccc(N2CCN(Cc3cc4c5c(c(C(F)(F)F)nn5c3)N(C)C(=O)N4)CC2)c(C)n1 [Compound 58] | 0.99 nM | 1.2 nM | 206 | 204 nM | 
31 | CNC(=O)c1ccc(N2CCN(Cc3cc4c5c(cnn5c3)N(C3CCC3)C(=O)N4)CC2)c(C)n1 [Compound 59] |  | 6.5 nM |  |  | IC50 [3]: > 10000 nM
32 | CNC(=O)c1ccc(N2CCN(Cc3cc4c5c(cnn5c3)N(CC(F)(F)F)C(=O)N4)CC2)c(C)n1 [Compound 61] |  | 16.2 nM |  |  | IC50 [3]: 1440 nM
33 | CCCN1C(=O)Nc2cc(CN3CCN(c4ccc(C(=O)NC)nc4C)CC3)cn3ncc1c23 [Compound 62] | 3.3 nM | 20.9 nM | 422.3 | 1400 nM | 
34 | CNC(=O)c1ccc(N2CCN(Cc3cc4c5c(cnn5c3)N(CCO)C(=O)N4)CC2)c(C)n1 [Compound 63] | 2.1 nM | 16.8 nM | 827.4 | 1830 nM | 
35 | CNC(=O)c1ccc(N2CCN(Cc3cc4c5c(cnn5c3)NC(=O)N4)CC2)c(C)n1 [Compound 64] |  | 17.5 nM |  |  | 
36 | CNC(=O)c1ccc(N2CCN(Cc3cn4ncc5c4c(c3C)NC(=O)N5C3CC3)CC2)c(C)n1 [Compound 66] | 3.3 nM | 48.1 nM | 417.5 | 1380 nM | 
37 | CNC(=O)c1ccc(N2CCN(Cc3cc4c5c(cnn5c3)N(CC(C)O)C(=O)N4)CC2)c(C)n1 (stereo not shown) [Compound 67] |  | 392 nM |  |  | 
38 | CNC(=O)c1ccc(N2CCN(Cc3cc4c5c(cnn5c3)N(CC3CCC3)C(=O)N4)CC2)c(C)n1 [Compound 69] |  | 720 nM |  |  | 
39 | CNC(=O)c1ccc(N2CCN(Cc3cc4c5c(cnn5c3)N(C3CCC3)C(=O)N4)C[C@H]2C)c(C)n1 [Compound 72] | 4.9 nM |  | 97.6 | 474 nM | 
40 | CNC(=O)c1ccc(N2CCN(Cc3cc4c5c(cnn5c3)N(C3CCC3)C(=O)N4)CC2)c(Cl)n1 [Compound 73] |  | 3.2 nM |  |  | 
41 | CNC(=O)c1ccc(N2CCN(Cc3cc4c5c(cnn5c3)N(C3CCC3)C(=O)N4)[C@H](C)C2)c(C)n1 [Compound 79] |  | 21.8 nM |  |  | 
42 | CNC(=O)c1ccc(N2CCN(Cc3cc4c5c(cnn5c3)N(C3CCC3)C(=O)N4)[C@H](C)C2)c(Cl)n1 [Compound 80] |  | 18.7 nM |  |  | 
43 | CNC(=O)c1ccc(N2CCN(Cc3cc4c5c(c3)ncn5C(C3CCC3)C(=O)N4)CC2)c(Cl)n1 (stereo not shown) [Compound 81] | 4.2 nM | 4.6 nM | 574.1 | 2410 nM | 
44 | CCN1C(=O)Nc2cc(CN3CCN(c4ccc(C(=O)NC)nc4F)CC3)cc3c2c1nn3C [Compound B1, 5-(4-((3-ethyl-1-methyl-4-oxo-1,3,4,5-tetrahydropyrazolo[3,4,5-d]quinazolin-7-yl)methyl)piperazine-1-yl)-6-fluoro-N-methylpicolinamide, reference compound] |  |  | 2.64 |  | IC50 [1]: 1.4 nM; IC50 [6]: 3.7 nM
